Assay results as given in patent US20120214778A1 (priority 2009, published 2012).

Columns and labels:
[1] = CONFIRM phase III study: safety and tolerability (adverse events); assay type: in vivo, postmenopausal women
Excerpt: Outcome variables for safety were frequency and severity of adverse events (AEs), including pre-specified AEs of interest.
Patients could be discontinued from study treatment and assessments at any time at the discretion of the investigators. Patients were also free to discontinue their participation in the study at any time, without prejudice to further treatment. Specific reasons for discontinuing a patient from this study, and the procedures to be followed when a patient discontinued or was incorrectly enrolled, are listed in Section 3.3.5 of the CSP. For patients who discontinued, it was noted whether they were assessed after study medication was stopped, and whether they were asked about the reason(s) for their discontinuation and about the presence of any adverse events (AEs). If possible, they were seen and assessed by an investigator. AEs were followed up for 56 days after the last injection.

advanced breast cancer = conditions: 250 mg, cited from earlier work
[2] = test system: oestrogen receptor positive advanced breast cancer; assay: CONFIRM phase III study, fulvestrant 500 mg vs 250 mg: efficacy; conditions: for Number progressed / Number progressed (%): progressed or died at data cut-off; for Median DoR: from randomisation, patients with OR;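 on all read-outs here: efficacy outcomes summarised by randomised treatment arm using the full analysis set of patients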
Description: The primary outcome variable TTP; secondary variables were ORR, CBR, DoR, DoCB and OS.
For the primary endpoint TTP, the primary analysis was an unadjusted log-rank test and the secondary analysis was a Cox proportional hazard model, adjusted for treatment and other predefined covariates.
For OS, the unadjusted log-rank test was performed. For ORR and CBR, a logistic regression model with treatment factor only was fitted. […] For HRQoL endpoints, a longitudinal model with treatment and other covariates was used.
For efficacy and HRQoL endpoints, summaries and analyses were carried out according to the randomised treatment i.e., using the Full Analysis Set. For safety endpoints, summaries and analyses were carried out according to the treatment actually received, i.e., using the safety analysis set. The primary endpoint was also analysed in the per protocol set (PPS).
Time to progression is the time between randomisation and the earliest of progression or death from any cause.

SMILES: C[C@]12CC[C@@H]3c4ccc(O)cc4C[C@@H](CCCCCCCCC[S+]([O-])CCCC(F)(F)C(F)(F)F)[C@H]3[C@@H]1CC[C@@H]2O (stereo partly drawn) [fulvestrant, 7alpha-[9-(4,4,5,5,5-pentafluoropentylsulfinyl)-nonyl]estra-1,3,5, (10)-triene-3, 17beta-diol]
- gastrointestinal disturbances (pre-specified AE), patients ([1]; 250 mg): approximately 20%
- joint disorders (pre-specified AE), patients ([1]; 250 mg): ~19%
- gastrointestinal disturbances (pre-specified AE), patients ([1]; 500 mg): approximately 20%
- joint disorders (pre-specified AE), patients ([1]; 500 mg): ~19%
- tolerability ([1]; 500 mg): well tolerated
- dose dependence of adverse events ([1]; 500 mg vs 250 mg): no evidence for dose dependence for any AE
- efficacy compared with anastrozole (advanced breast cancer; Studies 20/21): non-inferior to anastrozole
- Median TTP (advanced breast cancer; combined analysis of Studies 20/21): 5.5 months
- Time to progression (months): 25% quartile ([2]; 250 mg): 2.7 months
- Time to progression (months): 75% quartile ([2]; 250 mg): 11.9 months
- expected DoCB (EDoCB) ([2]; 250 mg): 7.24 months
- proportion of patients with a best objective response of progressive disease ([2]; 250 mg): 44.7%
- Median TTP ([2]; 250 mg im every 28 days, N = 374): 5.5 months
- Percentage of patients progression free at 6 months ([2]; 250 mg): 45%
- % patients progression free at 12 months ([2]; 250 mg): 25%
- % patients progression free at 12 months ([2]; 250 mg, listed as Fulvestrant): 25%
- Percentage of patients progression free at 18 months ([2]; 250 mg): 14%
- % patients alive at 24 months ([2]; 250 mg): fulvestrant 250 mg = 49%
- Percentage of patients progression free at 24 months ([2]; 250 mg): 11%
- Number progressed ([2]; 250 mg, N = 374): 321
- Number progressed (%) ([2]; 250 mg, N = 374): 85.8%
- Median DoR ([2]; 250 mg): 250 mg = 16.4 months
- Time to progression (months): 25% quartile ([2]; 500 mg): 2.8 months
- Time to progression (months): 75% quartile ([2]; 500 mg): 16.6 months
- expected DoCB (EDoCB) ([2]; 500 mg): 9.83 months
- proportion of patients with a best objective response of progressive disease ([2]; 500 mg): 38.7%
- reduction in risk of death ([2]; 500 mg compared with 250 mg): 16%
- reduction in risk of progression ([2]; 500 mg compared with 250 mg): 20%
- Median TTP ([2]; 500 mg im days 0, 14, 28 then every 28 days, N = 362): 6.5 months
- Ratio of EDoR (95% CI) ([2]; 500 mg vs 250 mg, from randomisation to progression): Ratio of EDoR = 0.894 (95% CI 0.479-1.667); p = 0.724
- Percentage of patients progression free at 6 months ([2]; 500 mg): 51%
- % patients progression free at 12 months ([2]; 500 mg): 34%
- % patients progression free at 12 months ([2]; 500 mg, listed as Fulvestrant): 34%
- Percentage of patients progression free at 18 months ([2]; 500 mg): 23%
- % patients alive at 24 months ([2]; 500 mg): % patients alive at 24 months: fulvestrant 500 mg = 53%;
- Percentage of patients progression free at 24 months ([2]; 500 mg): 16%
- Number progressed ([2]; 500 mg, N = 362): 297
- Number progressed (%) ([2]; 500 mg, N = 362): 82.0%
- Median DoR ([2]; 500 mg): Median DoR^c: fulvestrant 500 mg = 19.4 months; fulvestrant
